# From paper PMC10783051 (Microbiology Spectrum, 2023)
# Test system: Streptomyces venezuelae ATCC 10712
# Assay: Confrontation assay B. velezensis GA1 / S. venezuelae on REM plate, UPLC-MS metabolite profiling of the agar
# Conditions: gelified REM, 3 days at 26°C
# Procedure: Confrontation assays were performed on square Petri dishes (12 × 12 cm) with 40 mL of REM solid medium at 26°C (REM supplemented with 14 g/L of agar).
# S. venezuelae ATCC 10712 was inoculated as stripes (1 × 12 cm) in the middle of the plate with 40 µL of spore suspension (10^7 spores/mL) and spread with a cotton swab. Next, B. velezensis GA1 cells were collected from fresh precultures as described and adjusted to OD600 nm 0.1. Then, 5 µL of B. velezensis GA1 suspension was spotted at 1 cm of the Streptomyces line. Control plates were done following the same procedure without the inoculation of either Bacillus or Streptomyces. Plates were then incubated for 3 days at 26°C in the dark. Pictures of the plates were then captured using a CoolPix camera (NIKKOR ×60 wide optical zoom extra-low dispersion vibration reduction 4.3–258.0 mm 1:33 to 6.5).
# The extraction of the metabolites from the agar was performed as follows. For the confrontation experiment, we precisely sampled the area of agar (2 × 1 cm) near the colony of Bacillus or Streptomyces (the confrontation zone is 1 cm wide) with standardized plugs. For the in planta, we sampled the agar area (1 × 1 cm) near the tomato roots. In both cases, the agar samples were transferred to Eppendorf tubes and placed for 24 h at −20°C. Then, the agar was thawed at room temperature and centrifuged for 10 min at 13,000 rpm. The supernatants were then collected and filtered (0.22-µm pore size filters) before UPLC-MS analysis.
# All UPLC-MS analyses were performed using an Agilent 1290 Infinity II coupled with a diode array detector and a mass detector (Jet Stream ESI-Q-TOF 6530) in positive mode with the parameters set up as follows: capillary voltage of 3.5 kV, nebulizer pressure of 35 lb/in^2, drying gas of 8 L/min, drying gas temperature of 300°C, flow rate of sheath gas of 11 L/min, sheath gas temperature of 350°C, fragmentor voltage of 175 V, skimmer voltage of 65 V, and octopole radiofrequency of 750 V. Accurate mass spectra were recorded in the m/z range of 300–1,700. For untargeted MS/MS, we used the same MS1 parameters as described. We added MS2 untargeted acquisition mode with the parameters as follows: MS/MS range 50–1,700 m/z; MS/MS scan rate 3 spectra/s; isolation width MS/MS medium (approx. 4 AMU), Decision Engine Native; fixed collision energies of 25 and 40 V for surfactin, 50 V for iturin, and 60 V for fengycin experiments; precursor selection: three for the surfactin experiment, four for the iturin and fengycin experiments, threshold 1,500 (Abs), isotope model common, active exclusion after two spectra and release after 0.5 min, sorting the precursors by charge state then abundance (charge state preference 1). For targeted MS/MS, we used the same MS1 parameters MS/MS range of 50–1,700 m/z or 50–3,200 (when required for Pseudomonas CLPs with mass >1,700 Da), MS/MS scan rate 3 spectra/s, isolation width MS/MS narrow (approx. 1.3 amu), and fixed collision energies 20, 40, and 60V. In all experiments, a C18 Acquity UPLC ethylene bridged hybrid column (2.1 mm × 50 mm × 1.7 µm; Waters Corporation, Milford, MA, USA) was used at a flow rate of 0.6 mL/min and a temperature of 40°C. The injection volume was 20 µL, and the diode array detector scanned a wavelength spectrum between 190 and 600 nm. Unless otherwise mentioned, a gradient of acidified water (0.1% formic acid) (solvent A) and of acidified acetonitrile (0.1% formic acid) (solvent B) was used as mobile phase with a constant flow rate of 0.6 mL/min, starting at 10% B and rising to 100% B in 20 min. Solvent B was kept at 100% for 4 min before going back to the initial ratio. MassHunter Workstation (version 10.0) and ChemStation software were used for data collection and analysis. For untargeted analysis of iturin and fengycin degradation products, we used the same solvent and flow rate, starting at 10% B to 20% in 2 min, then rising to 50% B at 14 min and 100% B at 25 min, followed by 100% B and 5 at 10% B at 6 min.
substance,measurement,setting,value
iturin,shorter CLP fragment detected in the confrontation zone but not in Bv monoculture,"UPLC-MS, MS/MS",loss of asparagine in position 3
same,abundance of the CLP in the confrontation zone compared with monocultures,"agar extract of confrontation zone, UPLC-Q-TOF-MS peak areas, three biological replicates",decrease in the abundance
